Assay results reported in PubChem BioAssay (NCI).
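Briefly, cells in 96-well plates were exposed to five compound concentrations for 48 h, and endpoints were estimated by linear interpolation. Definition used: TGI = concentration required for complete inhibition of growth.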

Tests used:
Assay in all cases: inhibition of tumour cell growth, NCI panel, 48 h
UO-31 renal = tested on: UO-31 renal
A549 NSCLC = tested on: A549 NSCLC
U251 CNS = tested on: U251 CNS
SN12C renal = tested on: SN12C renal
CCRF-CEM leukemia = tested on: CCRF-CEM leukemia
HCT-15 colon = tested on: HCT-15 colon
HT29 colon = tested on: HT29 colon
EKVX NSCLC = tested on: EKVX NSCLC
HOP-62 NSCLC = tested on: HOP-62 NSCLC
OVCAR-3 ovarian = tested on: OVCAR-3 ovarian
SK-OV-3 ovarian = tested on: SK-OV-3 ovarian
KM20L2 colon = tested on: KM20L2 colon
DMS 114 small cell lung = tested on: DMS 114 small cell lung
SF-295 CNS = tested on: SF-295 CNS
KM12 colon = tested on: KM12 colon
ACHN renal = tested on: ACHN renal
UACC-257 melanoma = tested on: UACC-257 melanoma
CAKI-1 renal = tested on: CAKI-1 renal
HL-60(TB) leukemia = tested on: HL-60(TB) leukemia
COLO 205 colon = tested on: COLO 205 colon
NCI-H23 lung = tested on: NCI-H23 lung
UACC-62 melanoma = tested on: UACC-62 melanoma
XF 498 CNS = tested on: XF 498 CNS
SR leukemia = tested on: SR leukemia
MOLT-4 leukemia = tested on: MOLT-4 leukemia
LXFL 529 NSCLC = tested on: LXFL 529 NSCLC
RPMI-8226 leukemia = tested on: RPMI-8226 leukemia
DLD-1 colon = tested on: DLD-1 colon
OVCAR-4 ovarian = tested on: OVCAR-4 ovarian
OVCAR-5 ovarian = tested on: OVCAR-5 ovarian
SNB-19 CNS = tested on: SNB-19 CNS
SF-268 CNS = tested on: SF-268 CNS
SF-539 CNS = tested on: SF-539 CNS
HCT-116 colon = tested on: HCT-116 colon
MALME-3M melanoma = tested on: MALME-3M melanoma
HCC-2998 colon = tested on: HCC-2998 colon
HOP-92 NSCLC = tested on: HOP-92 NSCLC
SK-MEL-2 melanoma = tested on: SK-MEL-2 melanoma
NCI-H460 lung = tested on: NCI-H460 lung
A498 renal = tested on: A498 renal
SNB-75 CNS = tested on: SNB-75 CNS
SNB-78 CNS = tested on: SNB-78 CNS
TK-10 renal = tested on: TK-10 renal
SK-MEL-28 melanoma = tested on: SK-MEL-28 melanoma
OVCAR-8 ovarian = tested on: OVCAR-8 ovarian
M14 melanoma = tested on: M14 melanoma
DMS 273 small cell lung = tested on: DMS 273 small cell lung
SK-MEL-5 melanoma = tested on: SK-MEL-5 melanoma
K-562 leukemia = tested on: K-562 leukemia
NCI-H522 lung = tested on: NCI-H522 lung
IGROV1 ovarian = tested on: IGROV1 ovarian
SW-620 colon = tested on: SW-620 colon
RXF 393 renal = tested on: RXF 393 renal
HOP-18 NSCLC = tested on: HOP-18 NSCLC
786-0 renal = tested on: 786-0 renal
NCI-H226 lung = tested on: NCI-H226 lung
LOX IMVI melanoma = tested on: LOX IMVI melanoma
M19-MEL melanoma = tested on: M19-MEL melanoma

Structure (SMILES): CC(C(=O)OCc1ccccc1)N(Cc1ccccc1)Cc1ccccc1 (stereo unspecified)
- TGI (UO-31 renal): > 100 µM
- TGI (A549 NSCLC): > 100 µM
- TGI (U251 CNS): > 100 µM
- TGI (SN12C renal): > 100 µM
- TGI (CCRF-CEM leukemia): > 100 µM
- TGI (HCT-15 colon): > 100 µM
- TGI (HT29 colon): > 100 µM
- TGI (EKVX NSCLC): > 100 µM
- TGI (HOP-62 NSCLC): > 100 µM
- TGI (OVCAR-3 ovarian): > 100 µM
- TGI (SK-OV-3 ovarian): > 100 µM
- TGI (KM20L2 colon): > 100 µM
- TGI (DMS 114 small cell lung): > 100 µM
- TGI (SF-295 CNS): > 100 µM
- TGI (KM12 colon): > 100 µM
- TGI (ACHN renal): > 100 µM
- TGI (UACC-257 melanoma): > 100 µM
- TGI (CAKI-1 renal): > 100 µM
- TGI (HL-60(TB) leukemia): 79.2 µM
- TGI (COLO 205 colon): > 100 µM
- TGI (NCI-H23 lung): > 100 µM
- TGI (UACC-62 melanoma): > 100 µM
- TGI (XF 498 CNS): 77.7 µM
- TGI (SR leukemia): > 100 µM
- TGI (MOLT-4 leukemia): > 100 µM
- TGI (LXFL 529 NSCLC): > 100 µM
- TGI (RPMI-8226 leukemia): > 100 µM
- TGI (DLD-1 colon): > 100 µM
- TGI (OVCAR-4 ovarian): > 100 µM
- TGI (OVCAR-5 ovarian): > 100 µM
- TGI (SNB-19 CNS): > 100 µM
- TGI (SF-268 CNS): > 100 µM
- TGI (SF-539 CNS): > 100 µM
- TGI (HCT-116 colon): > 100 µM
- TGI (MALME-3M melanoma): > 100 µM
- TGI (HCC-2998 colon): > 100 µM
- TGI (HOP-92 NSCLC): > 100 µM
- TGI (SK-MEL-2 melanoma): > 100 µM
- TGI (NCI-H460 lung): > 100 µM
- TGI (A498 renal): > 100 µM
- TGI (SNB-75 CNS): > 100 µM
- TGI (SNB-78 CNS): > 100 µM
- TGI (TK-10 renal): > 100 µM
- TGI (SK-MEL-28 melanoma): > 100 µM
- TGI (OVCAR-8 ovarian): > 100 µM
- TGI (M14 melanoma): > 100 µM
- TGI (DMS 273 small cell lung): > 100 µM
- TGI (SK-MEL-5 melanoma): > 100 µM
- TGI (K-562 leukemia): > 100 µM
- TGI (NCI-H522 lung): > 100 µM
- TGI (IGROV1 ovarian): > 100 µM
- TGI (SW-620 colon): > 100 µM
- TGI (RXF 393 renal): 88 µM

Structure (SMILES): COC(=O)CCC(NC(=S)N/N=C(\C)c1ccc[nH]1)C(=O)OC (stereo unspecified)
- TGI (UO-31 renal): > 100 µM
- TGI (A549 NSCLC): > 100 µM
- TGI (HOP-18 NSCLC): > 100 µM
- TGI (U251 CNS): > 100 µM
- TGI (SN12C renal): > 100 µM
- TGI (CCRF-CEM leukemia): > 100 µM
- TGI (786-0 renal): > 100 µM
- TGI (HCT-15 colon): > 100 µM
- TGI (HT29 colon): > 100 µM
- TGI (EKVX NSCLC): > 100 µM
- TGI (HOP-62 NSCLC): > 100 µM
- TGI (OVCAR-3 ovarian): > 100 µM
- TGI (SK-OV-3 ovarian): > 100 µM
- TGI (KM20L2 colon): > 100 µM
- TGI (NCI-H226 lung): > 100 µM
- TGI (DMS 114 small cell lung): > 100 µM
- TGI (SF-295 CNS): > 100 µM
- TGI (KM12 colon): > 100 µM
- TGI (ACHN renal): > 100 µM
- TGI (UACC-257 melanoma): > 100 µM
- TGI (HL-60(TB) leukemia): > 100 µM
- TGI (COLO 205 colon): > 100 µM
- TGI (NCI-H23 lung): > 100 µM
- TGI (UACC-62 melanoma): > 100 µM
- TGI (XF 498 CNS): > 100 µM
- TGI (MOLT-4 leukemia): > 100 µM
- TGI (LXFL 529 NSCLC): > 100 µM
- TGI (DLD-1 colon): > 100 µM
- TGI (OVCAR-4 ovarian): > 100 µM
- TGI (OVCAR-5 ovarian): > 100 µM
- TGI (SNB-19 CNS): > 100 µM
- TGI (SF-268 CNS): > 100 µM
- TGI (SF-539 CNS): > 100 µM
- TGI (HCT-116 colon): > 100 µM
- TGI (MALME-3M melanoma): > 100 µM
- TGI (HCC-2998 colon): > 100 µM
- TGI (HOP-92 NSCLC): > 100 µM
- TGI (SK-MEL-2 melanoma): > 100 µM
- TGI (NCI-H460 lung): > 100 µM
- TGI (A498 renal): > 100 µM
- TGI (SNB-75 CNS): > 100 µM
- TGI (LOX IMVI melanoma): > 100 µM
- TGI (SNB-78 CNS): > 100 µM
- TGI (TK-10 renal): > 100 µM
- TGI (SK-MEL-28 melanoma): > 100 µM
- TGI (OVCAR-8 ovarian): > 100 µM
- TGI (M14 melanoma): > 100 µM
- TGI (DMS 273 small cell lung): > 100 µM
- TGI (SK-MEL-5 melanoma): > 100 µM
- TGI (M19-MEL melanoma): > 100 µM
- TGI (K-562 leukemia): > 100 µM
- TGI (NCI-H522 lung): > 100 µM
- TGI (IGROV1 ovarian): > 100 µM
- TGI (SW-620 colon): > 100 µM
- TGI (RXF 393 renal): > 100 µM

Structure (SMILES): COc1ccccc1OCC(COC(=O)Nc1ccccc1)OC(=O)Nc1ccccc1 (stereo unspecified)
- TGI (UO-31 renal): > 100 µM
- TGI (A549 NSCLC): > 100 µM
- TGI (HOP-18 NSCLC): > 100 µM
- TGI (U251 CNS): > 100 µM
- TGI (SN12C renal): > 100 µM
- TGI (CCRF-CEM leukemia): > 100 µM
- TGI (HCT-15 colon): > 100 µM
- TGI (HT29 colon): > 100 µM
- TGI (EKVX NSCLC): > 100 µM
- TGI (HOP-62 NSCLC): > 100 µM
- TGI (OVCAR-3 ovarian): > 100 µM
- TGI (SK-OV-3 ovarian): > 100 µM
- TGI (KM20L2 colon): > 100 µM
- TGI (NCI-H226 lung): > 100 µM
- TGI (DMS 114 small cell lung): > 100 µM
- TGI (SF-295 CNS): > 100 µM
- TGI (KM12 colon): > 100 µM
- TGI (ACHN renal): > 100 µM
- TGI (UACC-257 melanoma): > 100 µM
- TGI (CAKI-1 renal): > 100 µM
- TGI (HL-60(TB) leukemia): > 100 µM
- TGI (COLO 205 colon): > 100 µM
- TGI (NCI-H23 lung): > 100 µM
- TGI (UACC-62 melanoma): > 100 µM
- TGI (XF 498 CNS): > 100 µM
- TGI (LXFL 529 NSCLC): > 100 µM
- TGI (DLD-1 colon): > 100 µM
- TGI (OVCAR-4 ovarian): > 100 µM
- TGI (OVCAR-5 ovarian): > 100 µM
- TGI (SNB-19 CNS): > 100 µM
- TGI (SF-268 CNS): > 100 µM
- TGI (SF-539 CNS): 33.4 µM
- TGI (HCT-116 colon): > 100 µM
- TGI (MALME-3M melanoma): > 100 µM
- TGI (HCC-2998 colon): > 100 µM
- TGI (HOP-92 NSCLC): 28.7 µM
- TGI (SK-MEL-2 melanoma): 67.6 µM
- TGI (NCI-H460 lung): > 100 µM
- TGI (A498 renal): > 100 µM
- TGI (SNB-75 CNS): 45.6 µM
- TGI (LOX IMVI melanoma): > 100 µM
- TGI (SNB-78 CNS): > 100 µM
- TGI (TK-10 renal): > 100 µM
- TGI (SK-MEL-28 melanoma): > 100 µM
- TGI (OVCAR-8 ovarian): > 100 µM
- TGI (M14 melanoma): > 100 µM
- TGI (DMS 273 small cell lung): > 100 µM
- TGI (SK-MEL-5 melanoma): > 100 µM
- TGI (K-562 leukemia): > 100 µM
- TGI (NCI-H522 lung): > 100 µM
- TGI (IGROV1 ovarian): > 100 µM
- TGI (SW-620 colon): > 100 µM
- TGI (RXF 393 renal): 46.8 µM
